Results: PMC12040169 (PLOS Biology, 2025)

Experiment: in vitro
Details: human, hela cells, % viability

SMILES | viability at 28.5 h, 10 µM [%] | viability at 28.5 h, 10 µM (bulk resorufin, single well) [%]
O=C(O)CC1C(=O)NCCN1Cc1ccc(F)c(F)c1 (stereo not shown) [CBK270008] | 85.3 | 
COC(=O)c1cc(NC(=O)CC2Sc3ccccc3NC2=O)cc(C(=O)OC)c1 (stereo not shown) [CBK266260] | 99.6 | 
CC(=O)Oc1cccc(CN2CCCN(S(=O)(=O)c3ccc(-c4ccccc4)cc3)CC2)c1 [CBK063113] | 94.1 | 
O=c1[nH]c(=O)c2nnc(N/N=C\c3ccc(O)cc3)nc2[nH]1 [CBK263312] | 94.1 | 
Cc1cc(C)cc(OCC(=O)NNC(=O)CN2C(=O)c3ccccc3C2=O)c1 [CBK262394] | 91.4 | 
Cc1ccc(CSCCNC(=O)/C=C/c2ccccc2)cc1 [CBK263985] | 95.3 | 
CC(=O)Nc1cc(C)c(C)cc1NC(C)=O [CBK025366] | 97.5 | 
Cc1ccc(C(=O)N2CCn3c2nc2ccccc23)cc1 [CBK288204] | 108 | 
Cc1cc(C)nc(Nc2ccc(C3CCCN(S(=O)(=O)c4ccc(F)cc4)C3)nc2)n1 (stereo not shown) [CBK285987] | 86 | 
Cc1cccc(CN(Cc2ccccc2)C(=O)CCc2ccncc2)n1 [CBK282101] | 99.1 | 
O=C(c1cc(F)c(F)cc1F)N1CCC2(CCN(Cc3cc(=O)[nH]c(=O)[nH]3)C2)C1 (stereo not shown) [CBK132141] | 91.4 | 
CC(C)C(=O)N1CC2(CCN(Cc3ccc(C(C)C)cc3)CC2)c2ccccc21 [CBK122702] | 98.8 | 
CC1CCc2c(sc3ncnc(OCC(=O)N(C)CCC#N)c23)C1 (stereo not shown) [CBK304976] | 89.8 | 
CC(=O)c1ccc(-c2cc(Nc3ccc(O)cc3C)ncn2)s1 [CBK091052] | 115 | 
C[C@H](Nc1cncc(-c2ccc3ccccc3c2)n1)c1ccccc1 [CBK065799] | 108 | 
Cc1cc(NC(=O)C2CCN(c3ncccc3C#N)CC2)no1 [CBK305689] | 88.3 | 
COc1cc(=O)n(C)c(C)n1 [CBK007924] | 91 | 
COc1ccc(CN2C(=O)COC[C@@H]2[C@H](O)c2ccc(NC(=O)c3ccc(OC)cc3)cc2)cc1 [CBK289675] | 95.9 | 
Nc1ccn([C@H]2C[C@@H](O)[C@@H](CO)O2)c(=S)n1 [CBK201187] | 91.4 | 
O=c1[nH]c2ccc(NC(=S)NCc3ccccc3)cc2[nH]1 [CBK296099] | 93.8 | 
COc1cc(/C=C2\C(=O)NC(=O)N(c3ccc(O)cc3)C2=O)cc(I)c1O [CBK264298] |  | 114
O=C(Cc1ccccc1)NC(Cc1ccc(Cl)cc1)C(=O)O (stereo not shown) [CBK286976] | 92.7 | 

SMILES | viability at 28.5 h, 10 µM [%] | viability at 28.5 h, 10 µM (bulk resorufin, single well) [%]
O=C(CN1C(=O)c2ccccc2C1=O)Nc1ccc(S(=O)(=O)N2CCCCCC2)cc1 [CBK266693] | 91.7 | 
COc1ccc(N2C(=O)CC(N3CCN(C4CC(=O)N(c5ccc(OC)cc5)C4=O)CC3)C2=O)cc1 (stereo not shown) [CBK260907] | 88.2 | 
Cc1ccc2c(N)c(C(=O)c3ccccc3)sc2n1 [CBK115347] | 88.1 | 
O=C(O)c1ccc(N2C(=O)CC(N3CCN(Cc4ccc5c(c4)OCO5)CC3)C2=O)cc1 (stereo not shown) [CBK074573] | 87.1 | 
CCN(CC)C(=O)c1sccc1NS(=O)(=O)c1ccc(OC)c(OC)c1 [CBK004596] | 94.3 | 
O=C1c2ccccc2C(Nc2cccnc2)N1c1ccccn1 (stereo not shown) [CBK113239] | 80.5 | 
CS(=O)(=O)NC1c2cccc3cccc(c23)C1N1CCOCC1 (stereo not shown) [CBK265845] | 102 | 
O=C(NC(=S)Nc1ccc2[nH]c(=O)[nH]c2c1)c1ccc(F)cc1 [CBK263986] | 89.3 | 
O=S(=O)(c1ccc2ccccc2c1)N1CCN(CCCOc2ccccc2Cl)CC1 [CBK267018] | 106 | 
COc1ccc2c(c1)COC1(CCN(C(=O)C3CCC3C(=O)O)CC1)O2 (stereo not shown) [CBK060857] |  | 97.1
OC1(c2ccc(F)cc2)CCC2CN(CC3CC3)CC21 (stereo not shown) [CBK283105] | 88.9 | 
COC(=O)c1ccc(NC(=O)CN(c2ccc(F)c(Cl)c2)S(C)(=O)=O)cc1 [CBK267657] | 88.3 | 
O=C(Nc1cccnc1)N1CCCC(CO)C1 (stereo not shown) [CBK156068] | 92.4 | 
O=C1Nc2cc(C(F)(F)F)ccc2N2CCCC12 (stereo not shown) [CBK288125] | 99.7 | 
CCOC(=O)C1CCCN(CCC(=O)Nc2cc(C)cc(C)c2)C1 (stereo not shown) [CBK264284] | 100 | 
Cc1ccc(C(C)(C)CC(C)NCc2cccc(C(F)(F)F)c2)o1 (stereo not shown) [CBK262872] | 95 | 
COc1ccccc1C(=O)N1CCC(Cc2ccccc2-c2ccccc2)(C(N)=O)CC1 [CBK285739] | 96.4 | 
CCn1c(=O)n(CC(=O)N2CCCCC2C)c2cccnc21 (stereo not shown) [CBK283896] | 103 | 
O=C(N[C@@H](Cn1cc(Cl)c(=O)[nH]c1=O)C(=O)O)C1CCCC1 [CBK289658] | 113 | 
O=C(O)c1ccc(-c2ccc(N3CCN(C(=O)c4ccco4)CC3)nc2)cc1 [CBK037700] | 97.9 | 
O=C(O)c1cccc(CSCC(=O)N2CCC(Cc3ccccc3)CC2)c1 [CBK296675] | 102 | 
CS(=O)(=O)c1ccc(C(=O)Nc2nccs2)cc1 [CBK255213] | 98.3 | 

SMILES | viability at 28.5 h, 10 µM [%] | viability at 28.5 h, 10 µM (bulk resorufin, single well) [%]
O=C(C1CCCC1)N1CCCC1c1nnc(-c2ccsc2)o1 (stereo not shown) [CBK285506] | 102 | 
Cc1ccc(NC(=O)c2cccnc2)c(C(=O)O)c1 [CBK000177] | 103 | 
CCCCN1C(=S)SC(C)(C)C1N(O)C(=O)C1CCCCC1 (stereo not shown) [CBK008915] | 95.6 | 
CC(C)Nc1cccnc1N1CCN(C(=O)c2cc3cc(NC(=O)N4CCOCC4)ccc3[nH]2)CC1 [CBK007872] | 96.2 | 
Nc1ncc(-c2cccc(-c3ccccc3)c2)nc1N1CCN(CCO)CC1 [CBK063410] | 113 | 
Cn1nnc2cc(C(=O)NCCN3CCCCC3CO)ccc21 (stereo not shown) [CBK307268] | 84.3 | 
Cc1ccc(SCc2ccc(C(=O)NCc3cccnc3)cc2)cc1 [CBK268063] | 96.9 | 
COc1cc(C)nc(N2CCN(C(=O)CCc3ccsc3)CC2)n1 [CBK304572] | 87.6 | 
COc1ccc(NS(=O)(=O)c2ccc(N3CCCC3=O)cc2)cn1 [CBK270216] | 84.9 | 
CCOc1cc(/C=C2/SC(=S)N(c3cccc(Cl)c3)C2=O)ccc1OCC(=O)O [CBK264966] | 94.2 | 
CCN(CC)C(=O)CN1CCCN(c2cc(Oc3ccc(OC)c(OC)c3)ncn2)CC1 [CBK083359T] | 98.5 | 
COc1ccc(C2c3cc(OC)c(OC)cc3CC(=O)N2c2cccc(C(=O)O)c2)cc1OC (stereo not shown) [CBK296118] | 94.1 | 
COc1cc(CN2CCC(C)CC2)c([N+](=O)[O-])cc1OC [CBK261911] | 90 | 
CC(=O)Nc1ccc(CNC(=O)CN(C)Cc2cc(C)on2)cc1 [CBK307042] | 82.4 | 
N[C@@H]1CCCN(C(=O)c2ccccc2)[C@H]1c1ccccc1F [CBK281405] | 106 | 
OCc1ccccc1CN1CCOCC1 [CBK264388C] | 83.3 | 
CCNC(=O)C1(NC(=O)c2cn3ccccc3n2)CCCCC1 [CBK305240] | 102 | 
CC1CCN(S(=O)(=O)c2ccc(C(=O)N[C@@H](C)C(=O)O)cc2)CC1 [CBK297106] | 96.6 | 
COc1ccc(C(C)C)cc1-c1nccnc1NCc1ccco1 [CBK036672] | 98 | 
O=[N+]([O-])c1ccc(S(=O)(=O)CC(CN2CCCC2)N2CCCC2)cc1 (stereo not shown) [CBK266991] | 112 | 
COc1cccc(C(=O)Nc2nc3ccc(F)cc3s2)c1 [CBK287342] | 86.9 | 
O=C(COc1ccc(Cl)cc1Cl)Nc1ccc2cc[nH]c2c1 [CBK160023] | 92.5 | 

SMILES | viability at 28.5 h, 10 µM [%] | viability at 28.5 h, 10 µM (bulk resorufin, single well) [%]
CCN1CCOC(CNCc2ccc(OCC(N)=O)cc2)C1 (stereo not shown) [CBK305108] | 96.8 | 
O=C(NCc1cccs1)c1cc(S(=O)(=O)N2CCOCC2)c(Cl)cc1Cl [CBK269657] | 97.3 | 
CC(CC(=O)N1CCC(c2cc3cccnc3[nH]2)CC1)n1ccnc1 (stereo not shown) [CBK285028] | 107 | 
O=S(=O)(CC(F)(F)F)Nc1ccc(N2CCNCC2)c2ccccc12 [CBK059354C] | 90.6 | 
O=C(CNC1Cc2ccccc2C1)Nc1ccc(Cl)cc1C(=O)c1ccccc1Cl [CBK074764] | 100 | 
Cc1nn(CCC(=O)NC2CCOc3ccccc32)c(C)c1Cl (stereo not shown) [CBK281684] | 96.7 | 
CCN(CC)CCN1CCN(c2cc(-c3cccc4ccccc34)ncn2)CC1 [CBK091196] | 99.9 | 
CCc1nnc(NS(=O)(=O)c2cc(C(=O)O)c(Cl)cc2F)s1 [CBK062195] | 90.9 | 
N=c1n(CC(=O)O)c2ccccc2n1Cc1ccccc1Cl [CBK262917B] | 90.3 | 
COc1ccc(NC(=O)CN2CCN(S(=O)(=O)N(C)C)CC2)cc1 [CBK267465] | 93.3 | 
Cc1nc(SCc2ccccc2)nc(O)c1CC(=O)O [CBK264203] | 96.8 | 
OCc1cccc(-c2nccnc2NCc2ccc(F)cc2)c1 [CBK037670] | 103 | 
COC(=O)C1=C(C)N=C2SCCC(=O)N2C1c1ccc(C(C)C)cc1 (stereo not shown) [CBK073523] | 109 | 
Oc1ccc(-n2cc(-c3ccccc3C(F)(F)F)nn2)cc1 [CBK112971] | 95.5 | 
CCC(C)(C)Nc1cccnc1N(C)C1CCN(C(=O)c2cc3cc(N)ccc3[nH]2)CC1 [CBK016674] | 80.3 | 
O=C(CSc1nccn1-c1ccccc1)Nc1ccc(F)cc1 [CBK287399] | 76.1 | 
CC(=O)Nc1ccc(S(=O)(=O)Nc2nnc(CC(C)(C)C)s2)cc1 [CBK049910] | 87.7 | 
O=C(Nc1cccc(Br)c1)/C(=C\c1cccnc1)NC(=O)c1ccccc1 [CBK261450] | 85.8 | 
O=C(Nc1cccnc1)c1ncoc1-c1ccc(F)cc1 [CBK104357] | 106 | 
Cc1oc(C2CC2)cc1C(=O)N1CCn2c(nnc2C2CC2)C1 [CBK283687] | 94.9 | 
Cc1cccc(C)c1NC(=O)Nc1cc(N2CCNCC2)c2occc2c1 [CBK061748C] | 82.8 | 
CCc1ccc(C(=O)C(C)OC(=O)c2nc3nc(C)cc(C)n3n2)cc1 (stereo not shown) [CBK305023] | 87.7 | 
